From ChEMBL document CHEMBL3507680, “University of Dundee, Gates Library screen for HepG2 cell viability”

Test: Human HepG2 cell viability assay in 384 well format
Format: toxicity, cell-based
Parameters: dose 125 nL, time 70.5 hour; cytotoxicity at 70.5 h: concentration not given beside the values
Settings: HepG2 cells, read-out: Inhibition

SMILES | cytotoxicity at 70.5 h [%]
Cc1cc(CNC(=O)C2CCC(=O)N(Cc3ccccc3F)C2)on1 (centres undefined) | -2.07
CCc1cc(CNC(=O)C2CCC(=O)N(Cc3ccccc3F)C2)on1 (centres undefined) | -9.72
CS(=O)(=O)N1C[C@@H]2CC[C@H](C1)N(C(=O)CCc1n[nH]c3c1CCCC3)C2 | 27.3
Cc1cc(S(=O)(=O)N2C[C@H](C3CC3)[C@@H](N)C2)c(C)s1 | -6.03
Cc1[nH]c(=O)[nH]c(=O)c1CN1CCCC(CCc2ccccc2F)C1 (centres undefined) | -5.63
CCCOC(=O)N1CCCC2(CCN(Cc3cccc(C#N)c3)C2)C1 (centres undefined) | -6.05
CC(C)N1CCC(C(=O)N(C)CC(=O)c2ccc(O)cc2)CC1 | -17.5
Cc1cc(CN2CCC3(CC2)CC(C(=O)O)N(C(=O)C2CC2)C3)oc1C (centres undefined) | -13.7
CC(=O)N[C@@H]1CN(C2CCN(c3cccc(C)c3C)CC2)C[C@H]1C(C)C | -5.59
CC(C)CN1CCCC1c1ccc(C(=O)Nc2cccnc2)s1 (centres undefined) | 0.0684
CCN(CC)C(=O)[C@@H]1C[C@@H](N)CN1c1nc(N(C)C)nc(C)c1C | 2.56
Cc1cc(C)c(Cn2cncn2)cc1CN1CCC(CN)C1 (centres undefined) | -0.164
N#Cc1cccc(NC2CC(=O)N(CCc3ccc(F)cc3)C2)n1 (centres undefined) | 28.1
Cc1nsc(NC(=O)NC2CCCOC2)n1 (centres undefined) | 23
Cc1nnc(SCCCNc2cc(C3CC3)ncn2)s1 | 22.4
COc1nc2c(cc1C(=O)NCc1noc(Cc3cccs3)n1)CCC2 | -3.41
CC(c1nncn1C)n1cc(-c2cc(CN3CCCC3)cs2)nn1 (centres undefined) | 15.8
Cc1cccc(C)c1OC1CN(C(=O)C2CCCN(C(=O)N(C)C)C2)C1 (centres undefined) | -9.46
COCc1ncc(CN2CCC(Oc3ccc(OC)cc3)CC2)cn1 | -20.2
O=C(c1ccc(S(=O)(=O)NCC(F)F)cc1)N1C[C@H]2CNC[C@H]2C1 | -1.24
COc1ccc(N2CCN(C(=O)[C@@H]3C[C@@H](O)CN3)CC2(C)C)cc1 | 6.62
Cc1cc(C(=O)N2C[C@@H](CN(C)CCN(C)C)[C@@H](CO)C2)nc(C)n1 | 21.1

SMILES | cytotoxicity at 70.5 h [%]
CC(C)c1nc(CN(C)C(=O)CNC(N)=O)cs1 | -6.72
CCn1c(C)nnc1SCCNC(=O)Cn1cnc2ccccc2c1=O | -4.84
CN(Cc1nc(CC2CC2)no1)CC1Cc2ccccc2O1 (centres undefined) | -6.88
O=C(NCc1cnn2cccnc12)C1CC2(CCNCC2)CN1 (centres undefined) | -4.05
CC(C)n1cnnc1CN(C)C(=O)c1cccnc1O | -4.11
Cn1ccnc1C1CCN(S(=O)(=O)c2ccc3c(c2)OCCO3)CC1 | 9.02
CN(C)c1nc2c(c(N3CCC(O)CC3)n1)CN(CC1CCOC1)CC2 (centres undefined) | -3.69
CCC(Nc1nc(CCN)nc2ccccc12)c1cc(C)ccn1 (centres undefined) | -5.71
Cc1ncccc1Oc1ncnc(N2CCC3(CCCO3)CC2)c1C | -7.69
Cc1nn(C)cc1-c1ccnc(N2CCN(c3ccccc3)C(=O)C2)n1 | -3.19
CN(C)C(C(=O)NCC1(O)CCCCC1)c1cccc(F)c1 (centres undefined) | -2.16
COc1ccc(C(=O)N2C[C@@H](CN3CCCC3)[C@@H](CO)C2)c(C)c1 | -8.12
Cc1noc(C)c1CN(Cc1cccnc1)C1CN2CCC1CC2 (centres undefined) | 25
CN(C)S(=O)(=O)N1CC[C@]2(O)CCN(CCCc3cccnc3)C[C@@H]2C1 | 1.31
COCCN(C)Cc1nc(-c2cccc(F)c2F)oc1C | -11.3
FC(F)C(F)(F)COCc1ncnn1-c1ccc2c(c1)OCO2 | 6.96
CN(C)c1nc2c(c(N3CCCC4(CC3)CNC(=O)O4)n1)CCCC2 (centres undefined) | -1.83
Cn1ccnc1C1CCN(CCC2CCOC2)CC1 (centres undefined) | 14.8
CCCc1nc(C(=O)N2C[C@H](CO)C[C@H](CN3CCOCC3)C2)cs1 | -8.72
C1CCc2nnc(CNc3nc(C4CC4)nc4c3CCNCC4)n2CC1 | -5.38
Cc1cccc(C)c1OC1CN(C(=O)C2CCN(C(=O)N(C)C)CC2)C1 | 29.8
CNC(=O)C1CCN(c2cc(C3CCNCC3)nc(C)n2)C1 (centres undefined) | -19.2

SMILES | cytotoxicity at 70.5 h [%]
CCN1Cc2nc(OC)c(CNC(=O)C3CCS(=O)(=O)CC3)cc2C1=O | -2.6
Cc1cccc(SC2CCN(C(=O)CCCn3cnnn3)CC2)c1 | -15.1
Cc1ccn(CCNc2ncnc3c2CCN(Cc2ncc[nH]2)CC3)n1 | -8.65
CC(C)(O)c1cn(C2CCN(C(=O)CCC3CCCC3)CC2)nn1 | 27
COc1cccc(C2CCN2C(=O)c2cc(C(C)C)on2)c1 (centres undefined) | -0.704
Cc1nsc(NC(=O)N2CCCCC2CCO)n1 (centres undefined) | -6.53
CN1[C@@H](c2ccccc2)[C@@H](C(=O)NCC2CCOCC2)C[C@@]1(C)C(=O)O | -11.8
Cc1ccc(C2(O)CCN(C(=O)c3ccc(S(N)(=O)=O)cc3)CC2)nc1 | -12.2
CC(c1ccon1)N(C)S(=O)(=O)NCc1ccccc1 (centres undefined) | -2.95
Cc1cnccc1NCCNC1CCN(CC(C)C)CC1 | 2.02
Cn1cc2ncn([C@H]3CCN(Cc4ccccc4)C3)c(=O)c2n1 | -6.58
CCCn1nccc1C(=O)N1CCN(C2CCc3ccccc3C2)CC1 (centres undefined) | -7.89
CCC(CO)N(C/C(C)=C/c1ccco1)Cc1ccsc1 (centres undefined) | 3.15
Cc1cc(C(=O)N2CCCCC2c2nc3cc(F)ccc3[nH]2)no1 (centres undefined) | 27.9
NC1CCCCN(Cc2ccccc2CS(=O)(=O)c2ccccc2)C1 (centres undefined) | -8.29
CCc1nc(C)c([C@H]2CN(C)C[C@@H]2C(=O)Nc2ccc(OC)nc2)[nH]1 | -1.87
CN1CCC2(CC1)CN(C(=O)c1cccc3cccnc13)CCN2C | -8.6
O=C(O)c1ccc(N2CCC(Oc3cccc(F)c3)CC2)nc1 | 14.5
CCN(CC)C(=O)c1ccc(Cl)c(NC(=O)c2cnc(C)cn2)c1 | -7.02
CCCn1cc(-c2cc(-c3c[nH]cn3)c(C#N)c(N)n2)c(C)n1 | 3.58
CCC(C(=O)NCC1=CCCN(C)C1)c1ccccc1 (centres undefined) | -13.4
N#Cc1ccnc(N2CCC(NCCN3CCCC3)CC2)c1 | -6.96

SMILES | cytotoxicity at 70.5 h [%]
Cc1ccc(-c2n[nH]cc2CN(Cc2nccn2C)C(C)C)cc1C | -5.49
CSCC(=O)N1CCc2nc(C)nc(NCc3ccccc3)c2CC1 | -5.43
CS(=O)(=O)N1CCN(C(=O)c2ccco2)[C@H]2CS(=O)(=O)C[C@H]21 | 15.1
CN(Cc1csc(-c2cccs2)n1)C(=O)CN1CCOC1=O | -3.58
Cc1nn(C)cc1C(=O)N1CCCN(C2Cc3ccccc3C2)CC1 | 14.3
CS(=O)(=O)c1ccc(CN2C[C@H]3CC[C@@H]2CN(c2ncccn2)C3)cc1 | -5.94
COC(=O)c1cccc(CN(C)C(C)c2ccccn2)c1 (centres undefined) | -24.9
COc1ccccc1C(=O)N1CCN(C(=O)CCCc2cn[nH]c2)CC1 | -6.9
CCn1nc(C)cc1C(=O)N1CCCN(CCCc2ccccc2)CC1 | 1.03
Cc1cc(C(=O)N(C)Cc2nc(-c3ccccn3)no2)c(C)o1 | -4.74
CNc1ncc(C(=O)N2CCC(CCc3ccccc3)CC2)cn1 | 13.7
CCCN1CCN(Cc2cccc(OCC(N)=O)c2)[C@H]2CS(=O)(=O)C[C@H]21 | 0.755
CCOc1ncccc1CN1Cc2ncccc2C1=O | -6.82
CCn1cncc1Cn1ncc2ccccc2c1=O | -7.38
CCN1CCCC2(CCN(Cc3nnc(C4CC4)o3)C2)C1=O (centres undefined) | 0.731
CC(C)Cn1c(=O)n(CCCn2cccn2)c2cc(C(=O)O)cnc21 | -10.8
CC[C@@]1(O)CCN(C(=O)c2ccc(CN3CCCCCC3)cc2)C[C@H]1O | -3.75
CN(Cc1cccc(-n2cccn2)c1)C(=O)c1cccc(N(C)C)c1 | -10.6
CCCc1nnc(NC2CCN(C3CCOCC3)CC2)o1 | -9.47
CN(Cc1cc[nH]n1)C(C(=O)O)c1ccc(Cl)cc1 (centres undefined) | -4.85
COc1ncccc1C1CC(=O)NCc2nc3sccn3c21 (centres undefined) | -12.8
COc1ccccc1N1CCN(C(=O)CCn2nnnc2C)CC1(C)C | 19.3

SMILES | cytotoxicity at 70.5 h [%]
O=C1O[C@@H]2CN(C3CCOCC3)C[C@@H]2N1CCCc1ccc(F)cc1 | 14.2
Cc1cc(CN(C)C(C(=O)O)c2ccc(C(C)(C)C)cc2)on1 (centres undefined) | -5.92
Nc1cc(-c2cccc3c2CCNC3)ncn1 | -6.17
Cc1ccc(CCNc2nc(-c3ccncc3)nc3c2CCNCC3)o1 | 2.56
CC(C)Cc1cc(C(=O)N2CC(OCc3ccccc3F)C2)n(C)n1 | -2.8
COc1cccc(C(=O)N2CCc3c(nc(N)[nH]c3=O)C2)c1OC | -2.24
CS(=O)(=O)CCN1CC(c2ccccc2)(c2ccccc2)CCC1=O | 22.9
Cc1ncsc1-c1nc(CC2CCN(C)CC2)nn1Cc1ccccc1 | 8.01
COc1ccc([C@@H]2CN(C(=O)CS(C)(=O)=O)C[C@H]2NC(C)=O)cc1 | -2.94
CNC(=O)[C@@H]1C[C@@H](N)CN1c1nnc(-c2ccccc2)s1 | -4.95
CCn1ncnc1C(C)NC(=O)COc1ccc(Cl)cc1Cl (centres undefined) | -10.4
Cc1nn(C)c(C)c1C(C(=O)O)N1CCc2ccccc2C1 (centres undefined) | 0.959
CC(=O)NCc1cccc(-n2ccnc2-c2cccc(C(=O)O)c2)c1 | 16.6
CSc1nc(C)cc(N2CCC(c3ncc[nH]3)CC2)n1 | -2.3
CN(CCCOc1ccccc1Cl)C(=O)CN1C[C@@H]2CC[C@H](CC1=O)N2 | -2.68
CN(C)CC(c1ccccc1)N(C)C(=O)c1cccc(NCC(=O)O)c1 (centres undefined) | -0.106
CSc1ccccc1NC(=O)N1C[C@@H](N(C)C)[C@H](c2ccc(C)cc2)C1 | -13.9
COc1cccc(OC)c1C(C(=O)O)N(C)Cc1c(C)n[nH]c1C (centres undefined) | -14.8
O=C1CCCc2occ(C(=O)N3CCCC4(CCNC4)C3)c21 (centres undefined) | -7.04
c1cnnc(-c2noc(CCN3CCCO3)n2)c1 | -10.9
Cc1ccccc1CCC1CCCN(Cc2nnc(-c3ccco3)o2)C1 (centres undefined) | -12.7
